Where two headings read alike, the source gives them in different places.
How the values were obtained:
[1] = cited from earlier work; for solubility in water, in words: water (NAC: at 20° C.)
[2] = system: rat; settings: cited from earlier work
[3] = system: rats intoxicated with lead (lead acetate); test: Example 2: erdosteine i.v. vs NAC i.v. in rats intoxicated with lead; type: in vivo, Wistar rats
Experimental: (§1) The animals have been randomly divided in 11 lots.
(§2) 3. […] NAC has been dissolved in bidistilled water.
(§3) 4. […] Erdosteine has been solubilized in bidistilled water and sodium hydrogen carbonate equimolar, the resulting solution being administered in volume of 10 ml/kg. Preliminarily we tested the different molar ratios erdosteine/sodium hydrogen carbonate in a range between 0.5:1 and 1.5:1 and the volume to be solubilized. […] Animals Monitoring:
(§4) Mortality has been recorded. […] Few animals have been collected urine eliminated spontaneously for Pb—Hg analysis. Animals have been sacrificed under general anesthesia with ether. 6 animals of each group (3 males and 3 females) have been randomly selected for macroscopic and microscopic anatomic-pathological examination.

[4] = system: rats intoxicated with lead (lead acetate); test: Example 1: erdosteine per os vs NAC per os in rats intoxicated with lead; type: in vivo, Wistar rats; settings: erdosteine 875 mg/kg or NAC 500 mg/kg per os once a day for 7 days
Experimental: (§5) 3. […] NAC has been mixed with bidistilled water, the resulting solution being administered in volume of 10 ml/kg.
(§6) 4. […] Erdosteine has been mixed with bidistilled water and sodium hydrogen carbonate equimolar, the resulting solution being administered in volume of 10 ml/kg.
as §4

[5] = system: rats intoxicated with mercury (mercury chloride); test: Example 1: erdosteine per os vs NAC per os in rats intoxicated with mercury; type: in vivo, Wistar rats; settings: erdosteine 875 mg/kg or NAC 500 mg/kg per os once a day for 7 days
Experimental: as §5, §6, §4

[6] = system: rats intoxicated with paracetamol; test: Example 4: erdosteine i.v. vs NAC i.v. in rats intoxicated with paracetamol; type: in vivo, Wistar rats
From the text: Experiment has been carried on in parallel with experiment of example 3 and results of animals not intoxicated not treated (lot1) have been used as reference.
as §2
Animals have been monitored as described in example 3.
Mortality has been recorded.

[7] = system: rats intoxicated with mercury (mercury chloride); test: Example 2: erdosteine i.v. vs NAC i.v. in rats intoxicated with mercury; type: in vivo, Wistar rats
Experimental: as §1, §2, §3, §4

[8] = Pb intoxicated (lead acetate 4665 mg/kg per os), ERDO1 = erdosteine 350 mg/kg i.v. or NAC 114 mg/kg i.v. once a day for 7 days, 35 animals/lot
[9] = Pb intoxicated, ERDO1 = erdosteine 350 mg/kg i.v. or NAC 114 mg/kg i.v. once a day for 7 days
[10] = survivors after 7 days, Pb intoxicated, ERDO1 = erdosteine 350 mg/kg i.v. or NAC 114 mg/kg i.v. once a day
[11] = Pb intoxicated (lead acetate 4665 mg/kg per os), 30 animals/lot
[12] = survivors after 7 days, Pb intoxicated
[13] = Hg intoxicated (mercury chloride 42 mg/kg per os), 30 animals/lot
[14] = survivors after 7 days, Hg intoxicated
[15] = paracetamol […] per os, erdosteine 350 mg/kg i.v. or NAC 114 mg/kg i.v. once a day for 7 days, 30 animals/lot
[16] = paracetamol intoxicated, erdosteine 350 mg/kg i.v. or NAC 114 mg/kg i.v., 7 days
[17] = survivors at 7 days, paracetamol intoxicated, erdosteine 350 mg/kg i.v. or NAC 114 mg/kg i.v.
[18] = Hg intoxicated (mercury chloride 42 mg/kg per os), ERDO1 = erdosteine 350 mg/kg i.v. or NAC 114 mg/kg i.v. once a day for 7 days, 35 animals/lot
[19] = Hg intoxicated, ERDO1 = erdosteine 350 mg/kg i.v. or NAC 114 mg/kg i.v. once a day for 7 days
[20] = survivors after 7 days, Hg intoxicated, ERDO1 = erdosteine 350 mg/kg i.v. or NAC 114 mg/kg i.v. once a day

Question: Which results are given for `OCC(S)CS` (centres unmarked) [Dimercaprol, 2,3,Dimercapto1-propanol]?
Answer: solubility in water, in words [1]: hardly soluble; LD50 i.v. ([2]; rat, i.v.): 105 mg/kg

Question: Which results are given for `CC(=O)N[C@@H](CS)C(=O)O` [NAC, N-Acetylcysteine]?
Answer: Mortalitaty total [3, 8]: 28 ^3; Mortality in percent [3, 8]: 80%; Anatomical pathology: lesions [3, 9]: did not improve lesions; Pb in urine, Pb mean values [3, 9]: 12.9 mg/L; Creatinine mean values [3, 10]: 0.78 ^4 mK/dl; Haematocrit mean values [3, 10]: 35.48 ^3; Haemoglobin mean values [3, 10]: 15.86 ^3 g/dl; Leucocytes mean values [3, 10]: 16.36 ^3; Urea mean values [3, 10]: 80.98 ^4 mg/dl; Uric acid mean value [3, 10]: 2.13 ^4 mg/dl; erythrocytes mean values [3, 10]: 6.93 ^3 *10^6/mm^3; solubility in water, in words [1]: slightly soluble; LD50 i.v. ([2]; rat, in vivo, iv): 1140 mg/kg; LD50 per os ([2]; rat, in vivo): 5050 mg/kg; Mortality in percent [4, 11]: 30%; Mortality total [4, 11]: 9; Anatomical pathology: lesions (macroscopic and microscopic examination) ([4]; Pb intoxicated): did not improve lesions; Pb in urine, Pb mean values ([4]; Pb intoxicated, GS MS Varian 4100): 13.2 mg/L; Creatinine mean values [4, 12]: 0.66 ^3 mK/dl; Haematocrit mean values [4, 12]: 41.42^3; Haemoglobin mean values [4, 12]: 13.58^3 g/dl; Leucocytes mean values [4, 12]: 6.82^3; Urea mean values [4, 12]: 104.15 ^3 mg/dl; Uric acid mean value [4, 12]: 2.36 ^1 mg/dl; erythrocytes mean values [4, 12]: 6.55^3 *10^6/mm^3; Mortality in percent [5, 13]: 33.3%; Mortality total [5, 13]: 10^2^; Anatomical pathology: lesions (macroscopic and microscopic examination) ([5]; Hg intoxicated): less important lesions; Hg in urine mean values ([5]; Hg intoxicated, GS MS Varian 4100): 11.5 mg/L; Creatinine mean values [5, 14]: 0.56 ^3 mK/dl; Haematocrit mean values [5, 14]: 41.50^3; Haemoglobin mean values [5, 14]: 13.58^3 g/dl; Leucocytes mean values [5, 14]: 6.72^3; Urea mean values [5, 14]: 85.45 ^3 mg/dl; Uric acid mean value [5, 14]: 2.38 ^1 mg/dl; erythrocytes mean values [5, 14]: 6.92^3 *10^6/mm^3; Mortality percentual [6, 15]: 20%; Total mortality [6, 15]: 6/30; Renal aggression (urine summary), in words ([6]; paracetamol intoxicated, erdosteine 350 mg/kg i.v. or NAC 114 mg/kg i.v.): antagonized; Urine summary: Bil. [6, 16]: 3 mg/dL; Urine summary: Chet [6, 16]: neg; Urine summary: Density [6, 16]: 1015; Urine summary: Erythrocyte [6, 16]: 25 µL⁻¹; Urine summary: Glucose [6, 16]: neg; Urine summary: Leuc [6, 16]: 25 µL⁻¹; Urine summary: Prot. [6, 16]: 75 mg/dL; Urine summary: UBG [6, 16]: 1 mg/dL; Urine summary: pH [6, 16]: 6.8; ALT [6, 17]: 206.6^1; AST [6, 17]: 42.6^2; HCT [6, 17]: 41.7^1; PLT [6, 17]: 550.8^1; RBC [6, 17]: 7.20^1; Urea [6, 17]: 74.76^1; Uric acid [6, 17]: 2.574^1; Mortalitaty total [7, 18]: 30 ^3; Mortality in percent [7, 18]: 85.7%; Anatomical pathology: lesions [7, 19]: least severe damages; Hg in urine mean values [7, 19]: 13.9 mg/L; Creatinine mean values [7, 20]: 1.06 ^4 mK/dl; Haematocrit mean values [7, 20]: 38.97 ^3; Haemoglobin mean values [7, 20]: 14.57 ^3 g/dl; Leucocytes mean values [7, 20]: 10.5 ^3; Urea mean values [7, 20]: 79.52 ^4 mg/dl; Uric acid mean value [7, 20]: 2.02 ^4 mg/dl; erythrocytes mean values [7, 20]: 6.76 ^3 *10^6/mm^3

Question: Which results are given for `[Cl][Hg][Cl]` [mercury chloride]?
Answer: solubility in water ([1]; water at 20° C.): 7.4 g/100 ml; LD50 per os ([2]; per os, rat where given): 42 mg/kg

Question: With Lead acetate trihydrate as the compound, how does the LD50 per os ([2]; per os, rat where given) read?
Answer: 4665 mg/kg
